According to the NIST ThermoML archive (doi:10.1021/je050389b):
Numbers after ± are expanded uncertainties.

Test: xn = mol fraction of the nth substance listed
Settings: Liquid; for viscosity: 100.5 kPa; for mass density: 101 kPa

## CCCCCC(=O)OCC [ethyl hexanoate] + CCO
288.15 K, x1 = 0.05
  viscosity: 1.241 ± 0.018 mPa·s
  mass density: 804.18 ± 0.23 kg/m3
288.15 K, x1 = 0.1
  viscosity: 1.182 ± 0.018 mPa·s
  mass density: 812.99 ± 0.22 kg/m3
288.15 K, x1 = 0.15
  viscosity: 1.139 ± 0.017 mPa·s
  mass density: 820.54 ± 0.22 kg/m3
288.15 K, x1 = 0.2
  viscosity: 1.106 ± 0.017 mPa·s
  mass density: 827.14 ± 0.22 kg/m3
288.15 K, x1 = 0.25
  viscosity: 1.082 ± 0.017 mPa·s
  mass density: 832.89 ± 0.21 kg/m3
288.15 K, x1 = 0.3
  viscosity: 1.062 ± 0.017 mPa·s
  mass density: 837.94 ± 0.21 kg/m3
288.15 K, x1 = 0.35
  viscosity: 1.051 ± 0.017 mPa·s
  mass density: 842.47 ± 0.21 kg/m3
288.15 K, x1 = 0.4
  viscosity: 1.045 ± 0.017 mPa·s
  mass density: 846.5 ± 0.21 kg/m3
288.15 K, x1 = 0.45
  viscosity: 1.039 ± 0.017 mPa·s
  mass density: 850.15 ± 0.21 kg/m3
288.15 K, x1 = 0.5
  viscosity: 1.037 ± 0.017 mPa·s
  mass density: 853.47 ± 0.21 kg/m3
288.15 K, x1 = 0.55
  viscosity: 1.038 ± 0.017 mPa·s
  mass density: 856.51 ± 0.21 kg/m3
288.15 K, x1 = 0.6
  viscosity: 1.039 ± 0.017 mPa·s
  mass density: 859.28 ± 0.21 kg/m3
288.15 K, x1 = 0.65
  viscosity: 1.045 ± 0.017 mPa·s
  mass density: 861.84 ± 0.21 kg/m3
288.15 K, x1 = 0.7
  viscosity: 1.048 ± 0.017 mPa·s
  mass density: 864.22 ± 0.21 kg/m3
288.15 K, x1 = 0.75
  viscosity: 1.054 ± 0.017 mPa·s
  mass density: 866.43 ± 0.21 kg/m3
288.15 K, x1 = 0.8
  viscosity: 1.064 ± 0.017 mPa·s
  mass density: 868.48 ± 0.21 kg/m3
288.15 K, x1 = 0.85
  viscosity: 1.073 ± 0.017 mPa·s
  mass density: 870.41 ± 0.22 kg/m3
288.15 K, x1 = 0.9
  viscosity: 1.086 ± 0.017 mPa·s
  mass density: 872.22 ± 0.22 kg/m3
288.15 K, x1 = 0.95
  viscosity: 1.1 ± 0.017 mPa·s
  mass density: 873.99 ± 0.22 kg/m3
288.15 K, x1 = 1
  viscosity: 1.102 ± 0.017 mPa·s
  mass density: 875.64 ± 0.22 kg/m3
298.15 K, x1 = 0.05
  viscosity: 1.031 ± 0.017 mPa·s
  mass density: 795.44 ± 0.23 kg/m3
298.15 K, x1 = 0.1
  viscosity: 0.982 ± 0.016 mPa·s
  mass density: 804.11 ± 0.23 kg/m3
298.15 K, x1 = 0.15
  viscosity: 0.948 ± 0.016 mPa·s
  mass density: 811.53 ± 0.22 kg/m3
298.15 K, x1 = 0.2
  viscosity: 0.926 ± 0.016 mPa·s
  mass density: 818.05 ± 0.22 kg/m3
298.15 K, x1 = 0.25
  viscosity: 0.909 ± 0.016 mPa·s
  mass density: 823.72 ± 0.22 kg/m3
298.15 K, x1 = 0.3
  viscosity: 0.897 ± 0.016 mPa·s
  mass density: 828.72 ± 0.22 kg/m3
298.15 K, x1 = 0.35
  viscosity: 0.889 ± 0.016 mPa·s
  mass density: 833.2 ± 0.22 kg/m3
298.15 K, x1 = 0.4
  viscosity: 0.883 ± 0.016 mPa·s
  mass density: 837.18 ± 0.22 kg/m3
298.15 K, x1 = 0.45
  viscosity: 0.88 ± 0.016 mPa·s
  mass density: 840.82 ± 0.22 kg/m3
298.15 K, x1 = 0.5
  viscosity: 0.88 ± 0.016 mPa·s
  mass density: 844.11 ± 0.22 kg/m3
298.15 K, x1 = 0.55
  viscosity: 0.882 ± 0.016 mPa·s
  mass density: 847.12 ± 0.22 kg/m3
298.15 K, x1 = 0.6
  viscosity: 0.888 ± 0.016 mPa·s
  mass density: 849.88 ± 0.22 kg/m3
298.15 K, x1 = 0.65
  viscosity: 0.892 ± 0.016 mPa·s
  mass density: 852.43 ± 0.22 kg/m3
298.15 K, x1 = 0.7
  viscosity: 0.896 ± 0.016 mPa·s
  mass density: 854.82 ± 0.22 kg/m3
298.15 K, x1 = 0.75
  viscosity: 0.902 ± 0.016 mPa·s
  mass density: 857.02 ± 0.22 kg/m3
298.15 K, x1 = 0.8
  viscosity: 0.91 ± 0.016 mPa·s
  mass density: 859.09 ± 0.22 kg/m3
298.15 K, x1 = 0.85
  viscosity: 0.919 ± 0.016 mPa·s
  mass density: 861.04 ± 0.22 kg/m3
298.15 K, x1 = 0.9
  viscosity: 0.929 ± 0.016 mPa·s
  mass density: 862.86 ± 0.22 kg/m3
298.15 K, x1 = 0.95
  viscosity: 0.94 ± 0.016 mPa·s
  mass density: 864.66 ± 0.22 kg/m3
298.15 K, x1 = 1
  viscosity: 0.94 ± 0.016 mPa·s
  mass density: 866.29 ± 0.22 kg/m3
308.15 K, x1 = 0.05
  viscosity: 0.866 ± 0.016 mPa·s
  mass density: 786.59 ± 0.24 kg/m3
308.15 K, x1 = 0.1
  viscosity: 0.829 ± 0.015 mPa·s
  mass density: 795.12 ± 0.23 kg/m3
308.15 K, x1 = 0.15
  viscosity: 0.806 ± 0.015 mPa·s
  mass density: 802.42 ± 0.23 kg/m3
308.15 K, x1 = 0.2
  viscosity: 0.789 ± 0.015 mPa·s
  mass density: 808.85 ± 0.23 kg/m3
308.15 K, x1 = 0.25
  viscosity: 0.777 ± 0.015 mPa·s
  mass density: 814.44 ± 0.22 kg/m3
308.15 K, x1 = 0.3
  viscosity: 0.769 ± 0.015 mPa·s
  mass density: 819.38 ± 0.22 kg/m3
308.15 K, x1 = 0.35
  viscosity: 0.763 ± 0.015 mPa·s
  mass density: 823.82 ± 0.22 kg/m3
308.15 K, x1 = 0.4
  viscosity: 0.759 ± 0.015 mPa·s
  mass density: 827.76 ± 0.22 kg/m3
308.15 K, x1 = 0.45
  viscosity: 0.758 ± 0.015 mPa·s
  mass density: 831.37 ± 0.22 kg/m3
308.15 K, x1 = 0.5
  viscosity: 0.759 ± 0.015 mPa·s
  mass density: 834.63 ± 0.22 kg/m3
308.15 K, x1 = 0.55
  viscosity: 0.761 ± 0.015 mPa·s
  mass density: 837.64 ± 0.22 kg/m3
308.15 K, x1 = 0.6
  viscosity: 0.765 ± 0.015 mPa·s
  mass density: 840.39 ± 0.22 kg/m3
308.15 K, x1 = 0.65
  viscosity: 0.767 ± 0.015 mPa·s
  mass density: 842.94 ± 0.22 kg/m3
308.15 K, x1 = 0.7
  viscosity: 0.773 ± 0.015 mPa·s
  mass density: 845.33 ± 0.22 kg/m3
308.15 K, x1 = 0.75
  viscosity: 0.779 ± 0.015 mPa·s
  mass density: 847.54 ± 0.22 kg/m3
308.15 K, x1 = 0.8
  viscosity: 0.786 ± 0.015 mPa·s
  mass density: 849.63 ± 0.22 kg/m3
308.15 K, x1 = 0.85
  viscosity: 0.794 ± 0.015 mPa·s
  mass density: 851.59 ± 0.22 kg/m3
308.15 K, x1 = 0.9
  viscosity: 0.803 ± 0.015 mPa·s
  mass density: 853.45 ± 0.23 kg/m3
308.15 K, x1 = 0.95
  viscosity: 0.815 ± 0.015 mPa·s
  mass density: 855.27 ± 0.23 kg/m3
308.15 K, x1 = 1
  viscosity: 0.814 ± 0.015 mPa·s
  mass density: 856.91 ± 0.23 kg/m3
318.15 K, x1 = 0.05
  viscosity: 0.732 ± 0.015 mPa·s
  mass density: 777.58 ± 0.24 kg/m3
318.15 K, x1 = 0.1
  viscosity: 0.71 ± 0.015 mPa·s
  mass density: 785.96 ± 0.24 kg/m3
318.15 K, x1 = 0.15
  viscosity: 0.691 ± 0.015 mPa·s
  mass density: 793.14 ± 0.23 kg/m3
318.15 K, x1 = 0.2
  viscosity: 0.676 ± 0.014 mPa·s
  mass density: 799.48 ± 0.23 kg/m3
318.15 K, x1 = 0.25
  viscosity: 0.667 ± 0.014 mPa·s
  mass density: 805.01 ± 0.23 kg/m3
318.15 K, x1 = 0.3
  viscosity: 0.662 ± 0.014 mPa·s
  mass density: 809.89 ± 0.23 kg/m3
318.15 K, x1 = 0.35
  viscosity: 0.659 ± 0.014 mPa·s
  mass density: 814.29 ± 0.23 kg/m3
318.15 K, x1 = 0.4
  viscosity: 0.657 ± 0.014 mPa·s
  mass density: 818.2 ± 0.23 kg/m3
318.15 K, x1 = 0.45
  viscosity: 0.657 ± 0.014 mPa·s
  mass density: 821.8 ± 0.23 kg/m3
318.15 K, x1 = 0.5
  viscosity: 0.658 ± 0.014 mPa·s
  mass density: 825.05 ± 0.23 kg/m3
318.15 K, x1 = 0.55
  viscosity: 0.662 ± 0.014 mPa·s
  mass density: 828.05 ± 0.23 kg/m3
318.15 K, x1 = 0.6
  viscosity: 0.665 ± 0.014 mPa·s
  mass density: 830.79 ± 0.23 kg/m3
318.15 K, x1 = 0.65
  viscosity: 0.668 ± 0.014 mPa·s
  mass density: 833.34 ± 0.23 kg/m3
318.15 K, x1 = 0.7
  viscosity: 0.674 ± 0.014 mPa·s
  mass density: 835.75 ± 0.23 kg/m3
318.15 K, x1 = 0.75
  viscosity: 0.68 ± 0.015 mPa·s
  mass density: 837.97 ± 0.23 kg/m3
318.15 K, x1 = 0.8
  viscosity: 0.686 ± 0.015 mPa·s
  mass density: 840.08 ± 0.23 kg/m3
318.15 K, x1 = 0.85
  viscosity: 0.694 ± 0.015 mPa·s
  mass density: 842.07 ± 0.23 kg/m3
318.15 K, x1 = 0.9
  viscosity: 0.703 ± 0.015 mPa·s
  mass density: 843.97 ± 0.23 kg/m3
318.15 K, x1 = 0.95
  viscosity: 0.712 ± 0.015 mPa·s
  mass density: 845.83 ± 0.23 kg/m3
318.15 K, x1 = 1
  viscosity: 0.711 ± 0.015 mPa·s
  mass density: 847.5 ± 0.23 kg/m3
